For assay [1], the system named is ABL1(F317L), FYN, and LYN. As to the kind of experiment: MMS multiple-target analysis, Davis et al. dataset.

As for `Cc1ccc(F)c(NC(=O)Nc2ccc(-c3cccc4[nH]nc(N)c34)cc2)c1` [ABT-869, Linifanib], the “concentration of component in Mixture B required to inhibit all on-targets by at least 90%” value in the assay on CDC2L5 and TRKC was determined as 226 nM. The same measure, in the same setting: under `COc1cc2c(Oc3ccc(NC(=O)C4(C(=O)Nc5ccc(F)cc5)CC4)cc3F)ccnc2cc1OCCCN1CCOCC1` [EXEL-2880/GSK-1363089, Foretinib] stands 40.0 nM. Take `CSc1cccc(Nc2ncc3cc(-c4c(Cl)cccc4Cl)c(=O)n(C)c3n2)c1` [PD-173955]: the “concentration of component in Mixture A required to inhibit all on-targets by at least 90%” value in assay [1] is reported as 4.69 nM.

On to `Cc1ccc(NC(=O)c2ccc(CN3CCN(C)CC3)cc2)cc1Nc1nc(-c2cccnc2)cs1` [masatinib, Masitinib], for which the “concentration of component in Mixture A required to inhibit all on-targets by at least 90%” value in assay [1] was 661 nM.
